Results: US9204654B2, “Synergistic combination of a zoxamide compound and zinc pyrithione for dry film protection” (Rohm and Haas Company, priority 2012, dated 2015)

What was measured:
[1] = test system: Stichococcus bacillaris SAG 379-1a CCAP 379/1a; test: Algal efficacy test of dry paint film (modified ASTM 5589, 6-well plates); format: cell-based; conditions: 3 weeks; for Total conc: total biocide concentration in paint taken as minimum inhibitory concentration, pass level ≧75% inhibition, for zoxamide the maximum concentration tested, pass not reached
Method: (§1) Slurries containing 33% antimicrobial active ingredients (Zoxamide and ZnPT) were post added to a white, acrylic/silicone based outdoor paint free of biocides to give a total active ingredient concentration of 10000 and 1000 ppm respectively. These paints were then diluted with an antimicrobial free acrylic/silicone based paint and mixed to prepare targeted concentrations of antimicrobial compounds for the testing. The total biocides concentrations tested were 125, 250, 500, 1000, 2000 and 5000 ppm. After biocides addition or dilution, the paints were mixed 90 seconds with the horse power shaker (AXEL 75M3372/Agitateur SO-10MI) until uniformity was achieved. Paints containing different antimicrobial compounds at the same levels were mixed together in order to obtain the desired ratio of antimicrobial compounds. After one day, the paints were applied to Schleicher & Schuell filter paper at 280 μm wft and dried for 3 days at room temperature avoiding direct exposure to sunlight. Square discs (1.6 cm×1.6 cm) were cut out from each panel and were used as the substrate for algal efficacy tests. This sample size allowed for an agar border when the sample disc was placed into the well of the test plate.
(§2) Algal efficacy was tested according to modified ASTM 5589 which is a standard accelerated test method for determining resistance of various coatings (including paints) to algal defacement. To accommodate for high-throughput screening, this method was scaled down from petri dishes to 6-well plates. Bold Modified Basal Freshwater Nutrient Solution was used as growth medium. A single coated filter paper coupon was placed with a pair of sterile forceps at the center of the agar plug (on top) with the painted surface facing upwards. Algal inoculums were prepared by mixing equal concentrations (1×10^6 cfu/ml) and equal volumes of exponentially growing algae cultures.
(§3) Each well that contains a tested coupon was inoculated with 1750 μl of algal suspensions (1×10^6 cfu/ml) making sure that the whole surface (paint film as well as the agar surrounding it) was evenly covered. The plates were incubated at room temp (21° C.-25° C.) with cyclic exposure to light and dark phases, for a period of three weeks.
(§4) At the end of the three week incubation period, the samples were scored for percent inhibition regarding visible algal growth compared to the blank sample (0% inhibition).
(§5) The SI is calculated based on F. C.
(§6) SI value of <1 in the formula indicates a synergism of the blended biocides exists.
(§7) The minimal targeted inhibition was set at 75%, meaning a coupon with at least 75% algal growth inhibition was considered as a pass.

[2] = test system: Chlorella sp. ATCC 7516; test: as above; format: cell-based; conditions: 3 weeks; for Total conc: total biocide concentration in paint taken as minimum inhibitory concentration, pass level ≧75% inhibition, for zoxamide the maximum concentration tested, pass not reached
Method: as §1, §2, §3, §4, §5, §6, §7

[3] = total conc 500 ppm in paint, visible algal growth vs blank

SMILES	Total conc [1]	% inhibition [1, 3]	Total conc [2]	% inhibition [2, 3]	inhibition at 5000 ppm ([1]; Stichococcus bacillaris, 504 h, total conc 5000 ppm in paint, visible algal growth vs blank)	inhibition at 5000 ppm ([2]; 504 h, total conc 5000 ppm in paint, visible algal growth vs blank)
[O-][n+]1ccccc1[S][Zn][S]c1cccc[n+]1[O-] [ZnPT, bis(2-pyridylthio)zinc 1,1′-dioxide]	500 ppm	85%	500 ppm	90%		
CCC(C)(NC(=O)c1cc(Cl)c(C)c(Cl)c1)C(=O)CCl (centres unmarked) [Zoxamide, 3,5-Dichloro-N-(3-chloro-1-ethyl-1-methyl-2-oxopropyl)-4-methylbenzamide]	5000 ppm		5000 ppm		45%	60%
